According to patent US11286242B2 (priority 2018, dated 2022):

How the values were obtained:
[1] = system: Colletotrichum capsici; test: Colletotrichum capsici (anthracnose) radial mycelial growth on Potato Dextrose Agar; format: cell-based; details: Colletotrichum truncatum, 168 h, 25° C., 60% relative humidity, seven days, read-out: control compared to the untreated check
Description: Example 5: Colletotrichum capsici (Anthracnose)
(§1) Compounds were dissolved in 0.3% DMSO & then added to Potato Dextrose Agar medium just prior to dispensing it into petri dishes. 5 mL medium with compound in the desired concentration was dispensed into 60 mm sterile petri-plates. After solidification, each plate was seeded with 5 mm size mycelial disc taken form periphery of actively growing virulent culture plate. Plates were incubated in growth chambers at 25° C. temperature and 60% relative humidity for seven days and radial growth was measured.

[2] = system: Alternaria solani; test: Alternaria solani (early blight of tomato/potato) radial mycelial growth on Potato Dextrose Agar; format: cell-based; details: 168 h, Potato Dextrose Agar, 25° C., 60% relative humidity, seven days, read-out: control compared to the untreated check
Description: Example 4: Alternaria solani (Early Blight of Tomato/Potato)
as §1, with “solidification” for “solidification,”

[3] = system: Pyricularia oryzae; test: microbe, parasite or virus in culture; format: cell-based; details: 168 h, read-out: control compared to the untreated check
[4] = system: Phakopsora pachyrhizi; test: Phakopsora pachyrhizi test in soybean, preventive spray; format: in vivo; details: preventive spray on soybean plants, inoculated one day after treatment, greenhouse 25° C., 90% relative humidity, read-out: control (efficacy, disease severity rating) compared to the untreated check
Description: Example 8: Phakopsora pachyrhizi Test in Soybean
Compounds were dissolved in 2% DMSO/Acetone & then mixed with water to the calibrated spray volume of 50 mL and poured into the spray bottles for further applications.
To test the preventive activity of compounds, healthy young soybean plants raised in the greenhouse were sprayed with active compound preparation at the stated application rates inside the spray cabinets using hallowcone nozzles. One day after treatment, the plants were inoculated with spore suspension containing 2.1×10^6 Phakopsora pachyrhizi inoculum. The inoculated plants were then kept in greenhouse chamber at 25° C. temperature & 90% relative humidity for disease expression.
A visual assessment of compound's performance was carried out by rating the disease severity (0-100% scale) on treated plants on 3, 7, 10 & 15 days after application. Efficacy (% control) of the compounds was calculated by comparing the disease rating in the treatment with the one of the untreated control. The sprayed plants were also assessed for compound's plant compatibility by recording symptoms like necrosis, chlorosis & stunting.

[5] = system: Botrytis cinerea; test: Botrytis cinerea (gray mold) radial mycelial growth on Potato Dextrose Agar; format: cell-based; details: 168 h, 22° C., 90% relative humidity, seven days, read-out: control compared to the untreated check
Description: Example 3: Botrytis cinerea (Gray Mold)
as §1, with “22°” for “25°”, “90%” for “60%”

[6] = system: Septoria lycopersici; test: Septoria lycopersici (leaf spot of tomato) radial mycelial growth on Potato Dextrose Agar; format: cell-based; details: 300 ppm, 25° C., 70% relative humidity, seven days
Description: Example 6: Septoria lycopersici (Leaf Spot of Tomato)
as §1, with “70%” for “60%”

| SMILES | inhibition of growth at 300 ppm [1] [%] | inhibition of growth at 300 ppm [2] [%] | inhibition of growth at 300 ppm [3] [%] | pest or weed control at 500 ppm [4] [%] | inhibition of growth at 300 ppm [5] [%] | control compared to the untreated check [6] |
| --- | --- | --- | --- | --- | --- | --- |
| CS(=O)(=Nc1ccc(-c2noc(C(F)(F)F)n2)cc1)c1ccc(Cl)cc1 (centres unmarked) [Compound 13, (4-chlorophenyl)(methyl)((4-(5-(trifluoromethyl)-1,2,4-oxadiazol-3-yl)phenyl)imino)-λ^6-sulfanone] | > 70 | > 70 | > 70 | – | – | – |
| CS(=O)(=Nc1ccc(-c2noc(C(F)(F)F)n2)cc1)c1cccc(F)c1 (centres unmarked) [Compound 14, (3-fluorophenyl)(methyl)((4-(5-(trifluoromethyl)-1,2,4-oxadiazol-3-yl)phenyl)imino)-λ^6-sulfanone] | – | > 70 | > 70 | > 90 | > 70 | – |
| CS(=O)(=Nc1ccc(-c2noc(C(F)(F)F)n2)cc1)c1ccncc1 (centres unmarked) [Compound 15, methyl(pyridin-4-yl)((4-(5-(trifluoromethyl)-1,2,4-oxadiazol-3-yl)phenyl)imino)-λ^6-sulfanone] | > 70 | > 70 | > 70 | > 90 | > 70 | – |
| CS(=O)(=Nc1ccc(-c2noc(C(F)(F)F)n2)cc1)c1ccc(F)cc1 (centres unmarked) [Compound 17, (4-fluorophenyl)(methyl)((4-(5-(trifluoromethyl)-1,2,4-oxadiazol-3-yl)phenyl)imino)-λ^6-sulfanone] | > 70 | > 70 | > 70 | > 90 | > 70 | – |
| CS(=O)(=Nc1ccc(-c2noc(C(F)(F)F)n2)cc1)c1ccccc1 (centres unmarked) [Compound 18, methyl(phenyl)((4-(5-(trifluoromethyl)-1,2,4-oxadiazol-3-yl)phenyl)imino)-λ^6-sulfanone] | > 70 | > 70 | > 70 | > 90 | – | – |
| COc1ccc(S(C)(=O)=Nc2ccc(-c3noc(C(F)(F)F)n3)cc2)cc1 (centres unmarked) [Compound 20, (4-methoxyphenyl)(methyl)((4-(5-(trifluoromethyl)-1,2,4-oxadiazol-3-yl)phenyl)imino)-λ^6-sulfanone] | – | > 70 | > 70 | > 90 | – | – |
| CS(=O)(=NCc1ccc(-c2noc(C(F)(F)F)n2)cc1)c1ccc(Br)cc1 (centres unmarked) [Compound 22, (4-bromophenyl)(methyl)((4-(5-(trifluoromethyl)-1,2,4-oxadiazol-3-yl)benzyl)imino)-λ^6-sulfanone] | > 70 | – | > 70 | > 90 | – | – |
| COc1ccc(S(C)(=O)=NCc2ccc(-c3noc(C(F)(F)F)n3)cc2)cc1 (centres unmarked) [Compound 23, (4-methoxyphenyl)(methyl)((4-(5-(trifluoromethyl)-1,2,4-oxadiazol-3-yl)benzyl)imino)-λ^6-sulfanone] | > 70 | > 70 | > 70 | > 90 | > 70 | – |
| CS(=O)(=NC(=O)c1ccc(-c2noc(C(F)(F)F)n2)cc1)c1nccs1 (centres unmarked) [Compound 48, N-(methyl(oxo)(thiazol-2-yl)-λ^6-sulfaneylidene)-4-(5-(trifluoromethyl)-1,2,4-oxadiazol-3-yl)benzamide] | – | > 70 | – | > 90 | > 70 | – |
| CS(=O)(Cc1ccc(C(F)(F)F)cc1)=Nc1ccc(-c2noc(C(F)(F)F)n2)cc1 (centres unmarked) [Compound 90, methyl((4-(5-(trifluoromethyl)-1,2,4-oxadiazol-3-yl)phenyl)imino)(4-(trifluoromethyl)benzyl)-λ^6-sulfanone] | – | – | – | – | > 70 | – |
| COc1ccc(S(C)(=O)=Nc2ccc(-c3noc(C(F)(F)F)n3)cc2)c(OC)c1 (centres unmarked) [Compound 96, (2,4-dimethoxyphenyl)(methyl)((4-(5-(trifluoromethyl)-1,2,4-oxadiazol-3-yl)phenyl)imino)-λ^6-sulfanone] | – | > 70 | > 70 | > 90 | – | – |
| COc1ccc(S(C)(=O)=Nc2ccc(-c3noc(C(F)(F)F)n3)nc2)cc1 (centres unmarked) [Compound 108, (4-methoxyphenyl)(methyl)((6-(5-(trifluoromethyl)-1,2,4-oxadiazol-3-yl)pyridin-3-yl)imino)-λ^6-sulfanone] | – | > 70 | – | > 90 | > 70 | – |
| CS(=O)(=Nc1ccc(-c2noc(C(F)(F)F)n2)nc1)c1ccccc1 (centres unmarked) [Compound 109, methyl(phenyl)((6-(5-(trifluoromethyl)-1,2,4-oxadiazol-3-yl)pyridin-3-yl)imino)-λ^6-sulfanone] | – | > 70 | – | > 90 | > 70 | – |
| O=S1(=Nc2ccc(-c3noc(C(F)(F)F)n3)cc2)CCOCC1 [Compound 133, 4-((4-(5-(trifluoromethyl)-1,2,4-oxadiazol-3-yl)phenyl)imino)-1,4λ^6-oxathiane 4-oxide] | > 70 | – | > 70 | – | > 70 | – |
| O=S1(=Nc2ccc(-c3noc(C(F)(F)F)n3)cc2)CCCCC1 [Compound 134, 1-((4-(5-(trifluoromethyl)-1,2,4-oxadiazol-3-yl)phenyl)imino)hexahydro-1λ^6-thiopyran 1-oxide] | – | – | > 70 | – | – | more than 70% |
| CS(=O)(=NCc1cccc(-c2noc(C(F)(F)F)n2)c1)c1ccccc1 (centres unmarked) [Compound 138, methyl(phenyl)((3-(5-(trifluoromethyl)-1,2,4-oxadiazol-3-yl)benzyl)imino)-λ^6-sulfanone] | – | – | > 70 | – | > 70 | – |
| COc1ccc(S(C)(=O)=NCc2cccc(-c3noc(C(F)(F)F)n3)c2)cc1 (centres unmarked) [Compound 139, (4-methoxyphenyl)(methyl)((3-(5-(trifluoromethyl)-1,2,4-oxadiazol-3-yl)benzyl)imino)-λ^6-sulfanone] | – | – | > 70 | – | > 70 | – |
| COc1ccc(S(C)(=O)=NCc2cccc(-c3noc(C(F)(F)F)n3)c2)c(OC)c1 (centres unmarked) [Compound 140, (2,4-dimethoxyphenyl)(methyl)((3-(5-(trifluoromethyl)-1,2,4-oxadiazol-3-yl)benzyl)imino)-sulfanone] | – | – | – | – | > 70 | – |
| Cc1ccc(S(=O)(=O)NC(=O)c2ccc(-c3noc(C(F)(F)F)n3)cc2)cc1 [Compound 153, N-tosyl-4-(5-(trifluoromethyl)-1,2,4-oxadiazol-3-yl)benzamide] | – | – | – | – | > 70 | – |
| O=C(NS(=O)(=O)c1ccc(Cl)cc1Cl)c1ccc(-c2noc(C(F)(F)F)n2)cc1 [Compound 156, N-((2,4-dichlorophenyl)sulfonyl)-4-(5-(trifluoromethyl)-1,2,4-oxadiazol-3-yl)benzamide] | > 70 | – | – | – | > 70 | – |
| COc1ccc(S(=O)(=O)NC(=O)c2ccc(-c3noc(C(F)(F)F)n3)cc2)cc1 [Compound 157, N-((4-methoxyphenyl)sulfonyl)-4-(5-(trifiuoromethyl)-1,2,4-oxadiazol-3-yl)benzamide] | – | > 70 | – | – | > 70 | – |
| CS(=O)(=NC(=O)C1CC1)c1ccc(-c2noc(C(F)(F)F)n2)cc1 (centres unmarked) [Compound 181, N-(methyl(oxo)(4-(5-(trifluoromethyl)-1,2,4-oxadiazol-3-yl)phenyl)-λ^6-sulfaneylidene)cyclopropanecarboxamide] | > 70 | – | > 70 | – | – | – |
